In patent US20240228446A1, “PREPARATION METHOD FOR BICYCLIC COMPOUND AND APPLICATION AS ANTIFUNGAL AGENT” (priority 2021, published 2024):
≈ marks a conversion by molar mass, not a printed value. Read-outs that look alike come from different tables or passages of the source.

Experiments:
[1] = test system: Candida albicans ATCC MYA-2876; assay: Minimal inhibitory concentration (MIC) test on fungal growth (CLSI M27, yeasts); type: cell-based; settings: for MIC: Candida albicans, read-out: MIC Candida albicans ATCC MYA-2876
Description: (§1) • RPMI1640 medium: Brand: Gibco, article number: 31800-014 • Sabouraud dextrose agar (SDA): Brand: Hope Bio, article number: HB0253-81 • Voriconazole: Brand: Adamas, article number: 22105A • Amphotericin B: Brand: AbCam, article number: ab141199
(§2) MIC test was conducted in accordance with the guidelines and requirements of CLSI M27 (for yeasts) and M38 (for Aspergillus).
(§3) Strain preparation: The strains were inoculated 1 day in advance by streaking on SDA plates with glycerol strains stored at −80° C. The strains were cultured at 35° C. and 40 to 60% humidity for 18 to 24 hours. Streak inoculation of Aspergillus fumigatus and Cryptococcus neoformans was required to be done 3 days and 2 days in advance, respectively.
(§4) Preparation of culture medium and compounds: The liquid culture medium RPMI was prepared with pure water, and 0.165 mol/L MOPS was added to adjust the pH to 7.0. The mixture was filtered with a 0.22 μm-membrane filter, sterilized, and stored at 4° C. (no more than 3 months). 0.85% physiological saline was sterilized at 121° C. for 30 min and then stored at room temperature (no more than 1 week). The compounds were dissolved in DMSO to 12.8 mg/mL and stored at −20° C.
For yeast, 3 to 5 colonies were selected from the SDA plate on the day of testing and fully suspended in 5 mL of sterilized 0.85% physiological saline. The turbidity of the bacterial suspension was measured with a turbidimeter, and the turbidity was adjusted to approximately 0.2. The bacterial suspension was 50-fold and 20-fold (1000-fold in total) diluted in RPMI1640 medium, respectively, to serve as the inoculum. The final inoculum concentration was 500 to 2500 CFU/mL.
(§5) The compound was diluted to the highest 800 μg/mL (or 400 μg/mL) with DMSO, and a 10-step 2-fold gradient dilution was performed, resulting in 11 concentrations. 2 μL of the gradient-diluted compound was transferred to the corresponding wells of a 96-well plate, and then 198 μL of the inoculum was transferred to the test plate. The plate was incubated at 35° C. for 24 hours (Aspergillus fumigatus and Cryptococcus neoformans were incubated for 48 and 72 hours, respectively).
(§6) After the incubation, the growth of the fungi was visually observed. The lowest concentration of the compound that inhibited the growth of yeast by 50% (inhibited Aspergillus by 100%) was defined as the minimum inhibitory concentration (MIC, μg/mL). A magnifying glass or reading at OD530 nm could be used to assist in determining the MIC. Photos were taken of the test plates for record keeping.

[2] = test system: Aspergillus fumigatus ATCC MYA-4609; assay: Minimal inhibitory concentration (MIC) test on fungal growth (CLSI M38, Aspergillus); type: cell-based; settings: for MIC: Aspergillus fumigatus, read-out: MIC Aspergillus fumigatus ATCC MYA-4609
Description: as §1, §2, §3, §4
For Aspergillus, 5 mL of physiological saline was added to cover the mycelium, and the spores were gently scraped off with a spreader. The spore suspension was then transferred to a sterile test tube. An appropriate amount of spore suspension was taken and counted under a microscope using a hemocytometer. Spore concentration was adjusted to approximately 0.4 to 5×10^4 spores/mL using RPMI1640 medium.
as §5, §6

[3] = lowest concentration inhibiting growth of yeast by 50%, 35° C., 24 hours, RPMI1640
[4] = lowest concentration inhibiting Aspergillus by 100%, 35° C., 48 hours, RPMI1640

Compound	MIC [1, 3] [µg/mL]	further results
O[C@H](COc1ccc(C23CC(C[C@](O)(Cn4cncn4)c4ccc(F)cc4F)(C2)C3)cc1)C(F)(F)F [Compound 90A]	≤ 0.0039	MIC [2, 4]: 0.5 µg/mL (≈ 0.981 µM)
N#CCOc1ccc(C23CC(C(F)(F)C(O)(Cn4cnnn4)c4ccc(F)cc4F)(C2)C3)cc1 (stereo not drawn) [Compound 69]	–	MIC ([1]; 24 h): 0.016 µg/mL (≈ 0.0338 µM); MIC ([2]; 48 h): 4 µg/mL (≈ 8.45 µM)
CS(=O)(=O)COc1ccc(C23CC(C(F)(F)C(O)(Cn4cnnn4)c4ccc(F)cc4F)(C2)C3)cc1 (stereo not drawn) [Compound 131]	0.0078 (≈ 0.0148 µM)	MIC [2, 4]: 8 µg/mL (≈ 15.2 µM)
OC(COc1ccc(C23CC(C(F)(F)C(O)(Cn4cncn4)c4ccc(F)cc4F)(C2)C3)cn1)C(F)(F)F (stereo not drawn) [Compound 98]	–	MIC Candida albicans ATCC MYA-2876 [1, 3]: ≤0.0039 µg/mL; MIC Aspergillus fumigatus ATCC MYA-4609 [2, 4]: 2 µg/mL (≈ 3.66 µM)
OC(Cn1cnnn1)(c1ccc(F)cc1F)C(F)(F)C12CC(c3ccc(O[C@H]4CCOC4)cc3)(C1)C2 (stereo partly drawn) [Compound 41]	0.0078 (≈ 0.0155 µM)	MIC [2, 4]: 8 µg/mL (≈ 15.9 µM)
Oc1ccc(C23CC(C(F)(F)C(O)(Cn4cncn4)c4ccc(F)cc4F)(C2)C3)cc1 (stereo not drawn) [Compound 21]	≤ 0.0039	MIC [2, 4]: 2 µg/mL (≈ 4.61 µM)
C[C@H](C12CC(c3ccc(OC[C@H](O)C(F)(F)F)cc3)(C1)C2)[C@](O)(Cn1cncn1)c1ccc(F)cc1F (relative stereo) [Compound 125A]	≤ 0.0039	MIC [2, 4]: 0.5 µg/mL (≈ 0.955 µM)
O[C@](Cn1cncn1)(CC12CC(c3ccc(OCC(F)(F)F)cc3)(C1)C2)c1ccc(F)cc1F [Compound 49A]	≤ 0.0039	MIC [2, 4]: 0.5 µg/mL (≈ 1.04 µM)
O[C@@](Cn1ncnn1)(c1ccc(F)cc1F)C(F)(F)C12CC(c3cnc(OCC(F)(F)F)nc3)(C1)C2 (stereo in doubt) [Compound 110A]	0.016 (≈ 0.0309 µM)	–
O=C1NC[C@H](COc2ccc(C34CC(C(F)(F)C(O)(Cn5cnnn5)c5ccc(F)cc5F)(C3)C4)cc2)O1 (stereo partly drawn) [Compound 59]	0.13 (≈ 0.244 µM)	–
N#Cc1ccc(C23CC(CC(O)(Cn4cncn4)c4ccc(F)cc4F)(C2)C3)cc1 (stereo not drawn) [Compound 91]	≤ 0.0039	–
OC1(COc2ccc(C34CC(C(F)(F)[C@](O)(Cn5cnnn5)c5ccc(F)cc5F)(C3)C4)cc2)COC1 (stereo in doubt) [Compound 150A]	0.016 (≈ 0.0307 µM)	–
CN(C)C[C@H](O)COc1ccc(C23CC(C(F)(F)C(O)(Cn4cnnn4)c4ccc(F)cc4F)(C2)C3)cc1 (stereo partly drawn) [Compound 56]	0.5 (≈ 0.934 µM)	–
OC(COc1ccc(C23CC(C(F)(F)C(O)(Cn4cnnn4)c4ccc(F)cc4F)(C2)C3)cn1)C(F)(F)F (stereo not drawn) [Compound 97]	0.0078 (≈ 0.0142 µM)	–
CNC(=O)COc1ccc(C23CC(C(F)(F)C(O)(Cn4cnnn4)c4ccc(F)cc4F)(C2)C3)cc1 (stereo not drawn) [Compound 34]	0.016 (≈ 0.0317 µM)	–
Oc1ccc(C23CC(C(F)(F)[C@@](O)(Cn4cncn4)c4ccc(F)cc4F)(C2)C3)cc1 [Compound 21B]	1 (≈ 2.31 µM)	–
OC(Cn1cnnn1)(c1ccc(F)cc1F)C(F)(F)C12CC(c3ccc(C(F)(F)F)nc3)(C1)C2 (stereo not drawn) [Compound 115]	0.125 (≈ 0.256 µM)	–
N#Cc1ccc(COc2ccc(C#CC34CC(C(F)(F)C(O)(Cn5cnnn5)c5ccc(F)cc5F)(C3)C4)cc2)cc1 (stereo not drawn) [Compound 19]	0.016 (≈ 0.0279 µM)	–
COc1ccc(C23CC(C(F)(F)[C@@](O)(Cn4cnnn4)c4ccc(F)cc4F)(C2)C3)cc1 (stereo in doubt) [Compound 1B]	0.5 (≈ 1.12 µM)	–
OC(Cn1cnnn1)(c1ccc(F)cc1F)C(F)(F)C12CC(c3ccc(OC4CNC4)cc3)(C1)C2 (stereo not drawn) [Compound 44]	0.06 (≈ 0.123 µM)	–
OC(Cn1cncn1)(c1ccc(Cl)cc1F)C(F)(F)C12CC(c3ccc(OCC(F)(F)F)cc3)(C1)C2 (stereo not drawn) [Compound 5]	0.016 (≈ 0.0301 µM)	–
OC(COCc1ccc(C23CC(C(F)(F)C(O)(Cn4cnnn4)c4ccc(F)cc4F)(C2)C3)cn1)C(F)(F)F (stereo not drawn) [Compound 86]	0.06 (≈ 0.107 µM)	–
